Literature values as cited in patent publication US11174243B2, “Succinate forms and compositions of Bruton's tyrosine kinase inhibitors” (Sunesis Pharmaceuticals, Inc., priority 2016, dated 2021).
Read-outs that look alike come from different tables or passages of the source.

Settings: mean, cited from earlier work

SMILES	Cmax (560 mg (single dose))	AUC0-24 (100 mg BID (steady state))	Cmax (100 mg BID (steady state))
C=CC(=O)N1CCC[C@@H](n2nc(-c3ccc(Oc4ccccc4)cc3)c3c(N)ncnc32)C1 [Ibrutinib]	141 ng/mL		
CC#CC(=O)N1CCC[C@H]1c1nc(-c2ccc(C(=O)Nc3ccccn3)cc2)c2c(N)nccn12 [Acalabrutinib]		1850 ng·h/mL	827 ng/mL
